Columns and labels:
MSC [1] = test: Growth/proliferation of MSC isolated in 10% FBS and re-attached under serum-free conditions; format: cell-based; details: fibronectin-coated; for MSC proliferation in serum free medium containing FGF2 (5 ng/ml): 5 days; for MSC proliferation in serum free medium: over 3 passages, days 5, 10 and 15
Description: Tissue culture flasks were pre-coated with FN (black), HA (blue), VN (red) or LN (green) and cells were allowed to adhere in serum-free conditions. Cell numbers were obtained after 5 days. Controls include serum-free plating without the presence of an ECM attachment factor and 10% FBS (grey). Results are representative of 3 biological replicates with n=2;
Cells were then cultured in the presence of growth factors and passaged every 5 days. Controls include serum free plating without growth factors and 10% FBS. Results are representative of 3 biological replicates with n=2;
Cells were then cultured in serum-free media containing FGF2 (5 ng/ml) in the presence of PGE2, cholesterol or lipoprotein for 5 days. Controls include serum free plating without growth factors 10% FBS (A). Cells were then cultured in the presence of lipoprotein and passaged every 5 days for 3 passages, controls include serum free plating without lipoprotein (B). Results are representative of 3 biological replicates with n=2;
(§1) Proliferation of the MSC attached in the presence of basic fibroblast growth factor (bFGF2, FGF2) was also assessed after 6 days.
Serum-free basal medium formulation was selected based on the literature describing low-serum cell culture of dental pulp stem cells (Tarle et al., 2010). The basal medium was composed of ITS (1%, BD), ascorbic acid (10 mM, Sigma Aldrich), dexamethasone (10 nM, Sigma Aldrich), human serum albumin (50 mg/ml, Sigma Aldrich), penicillin/streptomycin solution (1%, Gibco) and MEM-α (Gibco). The effect of a range of growth factors on MSC proliferation was then examined. MSC were attached on fibronectin-coated tissue culture plastic for 48 hours in serum-free basal medium.
The effect of FGF2/FGF4 and FGF7 (1, 5 and 10 ng/ml), PDGFaa/PDGFab and PDGFbb (1, 5 and 10 ng/ml) on MSC proliferation over 3 passages on days 5, 10 and 15 was examined.
To further enhance MSC viability and proliferation lipoprotein was added to the serum-free basal medium. MSC isolated in the presence of serum were seeded on fibronectin-coated tissue culture plastic in serum free medium containing FGF2. Initially a range of factors were screened to support MSC viability after trypsinisation; the effect of prostoglandin E2 (PGE2; 50 μg/ml), cholesterol (30 μg/ml) and lipoprotein (4 μg/ml) on MSC proliferation in serum free medium containing FGF2 (5 ng/ml) was examined.

MSC [2] = test: Attachment of MSC isolated in 10% FBS and re-attached under serum-free conditions; format: cell-based; details: EGF 10 ng/ml, serum free with FGF2, 3 passages
Description: Tissue culture flasks were pre-coated with fibronectin (FN; black), hylauronic acid (HA; blue), vitronectin (VN; red) or laminin (LN; green) and cells were allowed to adhere in serum-free conditions. Controls include serum-free plating without the presence of an extra-cellular matrix (ECM) attachment factor and 10% FBS (grey). Results are representative of 3 biological replicates with n=2;
MSC were attached on tissue culture flasks in the presence of EGF (red) or on tissue culture plastic precoated with FN (purple) or in the presence of EGF on fibronectin coated plastic (green) and passaged every 3 days. Controls include serum free plating without the presence of an ECM attachment factor (blue) and 10% FBS (black). Results are representative of 3 biological replicates with n=2;
as §1

MSC [3] = test: Serum-free MSC isolation from bone marrow (CFU and cell number at end of primary culture); format: cell-based
Description: The number of colony forming units (CFU; FIG. 6A) and cell number (FIG. 6B) was determined at the end of primary culture. An additional marrow was seeded on tissue culture plastic pre-coated with varying concentrations of fibronectin to determine optimal concentration of fibronectin required. The number of CFU (FIG. 6C) and cell yield (FIG. 6D) was determined at the end of primary culture. Controls include MSC isolation in the presence of 10% FBS or on non-coated tissue culture plastic;
The number of colony forming units (FIG. 7A) and cell number (FIG. 7B) was determined at the end of primary culture. Controls include MSC isolation in the presence of 10% FBS or on non-coated tissue culture plastic;
Initially MSC were isolated from three bone marrows to determine a suitable attachment substrate. […] A further bone marrow donor was then screened to determine the optimal fibronectin concentration; 6 μg/ml was selected as the favourable concentration (FIGS. 6C and 6D).
To examine the role of EGF in MSC isolation and attachment, 5 bone marrows were tested. MSC were isolated in the presence of FGF2 (5 ng/ml) on fibronectin coated plastic in the presence of EGF, or on tissue culture plastic in the presence of EGF.

[4] = system: bone marrow mononuclear cells (MNCs); test: CFU-f assay, SF medium with various lipoproteins or fibronectin; format: cell-based, human; details: no fibronectin vs pre-coating vs fibronectin added to the medium; standard SF medium with LDL
Description: For the lipoprotein study, Serum Free (SF) media was prepared containing: no lipoprotein (No lipo), very low density lipoprotein (VLDL), low density lipoprotein (LDL) and high density lipoprotein (HDL). Other lipoproteins that exist are chylomicrons and intermediate density lipoprotein which were not assessed in this study as they were not commercially available at the time. MSCs were isolated from bone marrow based on plastic adherence in SF medium by plating 40×10^6 human bone marrow mononuclear cells/T-175 and culturing at 37° C., 5% CO2, 21% O2. Cells were subcultured once they had reached 80-90% confluence. MSCs were evaluated by assessing growth kinetics, tri-lineage differentiation and surface marker phenotype at the end of passage 3 (P3). For the lipoprotein study, SF medium was modified to contain one of the various lipoproteins at 80 ng/mL and these cells are seeded onto T175 flasks, which had been pre-coated with fibronectin. For the fibronectin study described, standard SF medium containing LDL (Standard Formulation) was used and cells were seeded onto T175 flasks without fibronectin, with fibronectin pre-coating or with fibronectin added to the medium itself. CFU-f assays were carried out by seeding bone marrow mononuclear cells (MNCs) at a density of 1×10^6 MNC/10 cm^2 in triplicate in 6-well plates. […]

MSCs = test: Growth kinetics of MSC cultures, lipoprotein and fibronectin study; format: cell-based, human; details: no fibronectin vs pre-coating vs fibronectin in the medium
Description: MSCs were isolated from bone marrow based on plastic adherence in SF medium by plating 40×10^6 human bone marrow mononuclear cells/T-175 and culturing at 37° C., 5% CO2, 21% O2. Cells were subcultured once they had reached 80-90% confluence. MSCs were evaluated by assessing growth kinetics, tri-lineage differentiation and surface marker phenotype at the end of passage 3 (P3). For the lipoprotein study, SF medium was modified to contain one of the various lipoproteins at 80 ng/mL and these cells are seeded onto T175 flasks, which had been pre-coated with fibronectin. […]
VLDL and LDL are involved in trafficking fats to cells in arteries which may indicate why these groups had cells which formed more disperse healthier looking CFU-fs. […] Applying these CFU-f numbers with cell yields at the end of each passage, growth curves were calculated. […]
The final aim of this work was to determine if fibronectin is required for isolation and establishment of MSC cultures in the proprietary serum-free medium. […] This was assessed by looking at CFU-f numbers and growth kinetics of cells isolated from bone marrow directly onto tissue culture plastic without fibronectin, onto tissue culture plastic pre-coated with fibronectin and finally with fibronectin incorporated into the medium itself.

[5] = three bone marrows, attachment substrate vs vitronectin and hyaluronic acid

`CCCCC[C@H](O)/C=C/[C@H]1[C@H](O)CC(=O)[C@@H]1C/C=C\CCCC(=O)O` [PGE2, prostoglandin E2, reference compound] was tested, and the “MSC proliferation in serum free medium containing FGF2 (5 ng/ml)” value (MSC [1]; 50 μg/ml) was “inhibitory effect”.

With `CC(C)CCC[C@@H](C)[C@H]1CC[C@H]2[C@@H]3CC=C4C[C@@H](O)CC[C@]4(C)[C@H]3CC[C@]12C` [cholesterol, reference compound] the “MSC proliferation in serum free medium containing FGF2 (5 ng/ml)” value (MSC [1]; 30 μg/ml) was “inhibitory effect”.

For EGF: epidermal growth factor, the “MSC attachment over passaging” value (MSC [2]) was “increased MSC attachment”.

FGF2: basic fibroblast growth factor was tested, and the “MSC proliferation in serum free medium” value (MSC [1]; 5 ng/ml) was “increased MSC proliferation”.

In the case of PDGFab: growth factor PDGFab, the “MSC proliferation in serum free medium” value (MSC [1]; 10 ng/ml) is reported as “increased MSC proliferation”.

For fibronectin, the “requirement for MSC attachment” value (MSC [3]; 5 bone marrows, FGF2 5 ng/ml, with EGF, coated vs uncoated plastic) was “required”, the “cell number at the end of the first passage” value (MSC [3]; [5]) was “greatest cell number” and the colony forming units (MSC [3]; [5]) was “more colony forming units”. For the same molecule, the “ability of CFU-fs to form / CFU-f numbers with or without fibronectin” value [4] was “No difference” and the “growth kinetics of the MSC cultures with or without fibronectin” value (MSCs) was “unaffected”.
